Data set [1] has as its system A2780 human ovarian carcinoma. As to the kind of experiment: In vivo antitumor testing, A2780 human ovarian carcinoma xenograft. The protocol:
(§1) The following protocols are provided to facilitate the practice of Examples I and II. • Drug administration: For administration to rodents, CA4P was dissolved in normal saline (0.9% NaCl). Paclitaxel was dissolved in a 50/50 mixture of ethanol and Cremophor® and stored at 4° C.; final dilution of paclitaxel was obtained immediately before drug administration with NaCl 0.9%. Fresh preparation of paclitaxel was employed to avoid precipitation. CPT-11 was dissolved in normal saline. • The volume of all compounds injected was 0.01 ml/g of mice, and 0.005 ml/g of rats. • In Vivo Antitumor Testing: The following tumor models were used: A2780 human ovarian carcinoma, the murine fibrosarcoma M5076 and M5076/ddp (resistant to cisplatin and carboplatin).
(§2) The human tumors were maintained in Balb/c nu/nu nude mice. M5076 and M5076ddp were maintained in C57BL/6 mice. Tumors were propagated as subcutaneous transplants in the appropriate mouse strain using tumor fragments obtained from donor mice.
(§3) The following tumors were passaged in the indicated host strain of mouse: murine M5076 fibrosarcoma (M5076) in C57B1/6 mice; human A2780 ovarian carcinomas in nude mice. Tumor passage occurred biweekly for murine tumors and approximately every two to three weeks for the human tumor line. With regard to efficacy testing, M5076 and M507 6ddp tumors were implanted in (C57B1/6×DBA/2)F1 hybrid mice, and human tumors were implanted in nude mice. All tumor implants for efficacy testing were subcutaneous (sc).
The required numbers of animals needed to detect a meaningful response were pooled at the start of the experiment and each was given a subcutaneous implant of a tumor fragment (˜50 mg) with a 13-gauge trocar. For treatment of early-stage tumors, the animals were again pooled before distribution to the various treatment and control groups. For treatment of animals with advanced-stage disease, tumors were allowed to grow to the predetermined size window (tumors outside the range were excluded) and animals were evenly distributed to various treatment and control groups. […]
Tumor response was determined by measurement of tumors with a caliper twice a week, until the tumors reach a predetermined “target” size of 1 gm. Tumor weights (mg) were estimated from the formula: Tumor weight=(length×width2)÷2 Antitumor activity was evaluated at the maximum tolerated dose (MTD) which is defined as the dose level immediately below which excessive toxicity (i.e. more than one death) occurred. […] When death occurs, the day of death was recorded. […]
To estimate tumor cell kill, the tumor volume doubling time was first calculated with the formula: TVDT=Median time (days) for control tumors to reach target size−Median time (days) for control tumors to reach half the target size and, Log cell kill=T−C÷(3.32×TVDT). […]
A general note: A xenograft is tissue or cells of one species grown in another, often human tumour cells in immunodeficient mice.

In data set [2] the test system is M5076 murine fibrosarcoma. As to the kind of experiment: In vivo antitumor testing, sc M5076 murine fibrosarcoma. The settings on record: for complete response (disappearance of tumors): CA1P + carboplatin vs either agent alone (FIG. 11); for minimum effective dose required for synergistic enhancement: in combination with carboplatin (FIG. 10). The protocol:
as §1, §2, §3
The required numbers of animals needed to detect a meaningful response were pooled at the start of the experiment and each was given a subcutaneous implant of a tumor fragment (˜50 mg) with a 13-gauge trocar. For treatment of early-stage tumors, the animals were again pooled before distribution to the various treatment and control groups. For treatment of animals with advanced-stage disease, tumors were allowed to grow to the predetermined size window (tumors outside the range were excluded) and animals were evenly distributed to various treatment and control groups. Treatment of each animal was based on individual body weight. Treated animals were checked daily for treatment related toxicity/mortality. Each group of animals was weighed before the initiation of treatment (Wt1) and then again following the last treatment dose (Wt2). The difference in body weight (Wt2−Wt1) provides a measure of treatment-related toxicity.
Tumor response was determined by measurement of tumors with a caliper twice a week, until the tumors reach a predetermined “target” size of 1 gm. Tumor weights (mg) were estimated from the formula: Tumor weight=(length×width2)÷2 Antitumor activity was evaluated at the maximum tolerated dose (MTD) which is defined as the dose level immediately below which excessive toxicity (i.e. more than one death) occurred. […] When death occurs, the day of death was recorded.
Tumor response end-point was expressed in terms of tumor growth delay (T−C value), defined as the difference in time (days) required for the treated tumors (T) to reach a predetermined target size compared to those of the control group (C).
To estimate tumor cell kill, the tumor volume doubling time was first calculated with the formula: TVDT=Median time (days) for control tumors to reach target size−Median time (days) for control tumors to reach half the target size and, Log cell kill=T−C÷(3.32×TVDT).
Statistical evaluations of data were performed using Gehan's generalized Wilcoxon test.

The subject of data set [3] is M5076DDP murine fibrosarcoma. In words: In vivo antitumor testing, sc M5076DDP murine fibrosarcoma (resistant to cisplatin and carboplatin). Also noted: species or system mice. The procedure:
Fresh preparation of paclitaxel was employed to avoid precipitation.
M5076 and M5076ddp were maintained in C57BL/6 mice.
All tumor implants for efficacy testing were subcutaneous (sc).
The MTD was frequently equivalent to OD. When death occurs, the day of death was recorded.
M507 6DDP is a murine fibrosarcoma that has developed resistance to cisplatin and cross-resistance to carboplatin. The in vivo antitumor activity of CA4P or CA1P in combination with each of these platinum coordination compounds and CPT-11 were evaluated in M5076DDP tumor bearing mice.

In data set [4] the test system is sc A2780 human ovarian carcinoma. In words: Tumor perfusion, Evans blue dye uptake assay, mice. Type of data set: in vivo. Particulars: iv, optimal dose, Evans blue injected an hour later (FIG. 5A). The procedure:
(§4) The effects of CA4P disodium salt on tumor perfusion were also studied using the Evans blue dye uptake assay. Mice or rats bearing sc A2780 human ovarian carcinoma were administered an iv dose of CA4P disodium salt. An hour later, Evans blue was injected iv. The amount of Evans blue accumulated in the tumor is proportional to the blood flow through the tumor.

Data set [5] has the same test system. In words: Tumor perfusion, Evans blue dye uptake assay, rats. Type of data set: in vivo. The settings on record: iv, optimal dose, Evans blue injected an hour later (FIG. 5B). The procedure: as §4
The test system of data set [6] is ES2 human clear cell ovarian carcinoma. In words: Multi-drug resistant ES2 ovarian carcinoma model, tumor size and survival. In kind it is in vivo, Fox Chase CB-17 SCID mice. The procedure:
The multi-drug resistant ES2 human clear cell ovarian carcinoma was established by subcutaneous injection of cultured ES2 cells in Fox Chase CB-17 SCID mice. In one experiment, tumor-bearing mice were administered CA4P at a dose of 100 mg/kg (Group II), saline carrier only (Group I), an intraperitoneal (i.p.) injection of paclitaxel at a dose of 9 mg/kg, followed 30 minutes later by an infusion of carboplatin at a dose of 30 mg/kg […], or CA4P (100 mg/kg) followed 24 hours later by paclitaxel and carboplatin as in Group II (Group IV). Treatment with anticancer agents was performed once a week for 4 weeks (i.e. on Day 11, 19, 26, and 33). Tumors in each treatment group (n=2) were measured every 4 days by width and length. Tumor size (i.e. volume) was calculated according to the following formula: Length×Width^2×0.4.
In a second experiment, tumor-bearing mice were administered CA1P and/or carboplatin and paclitaxel in the same treatment regime as the first experiment.

A short description of data set [7]: Hematological analysis of whole blood, Phase I trial of CA4P. In kind it is in vivo, human. The protocol: Hematological analysis was performed on whole blood obtained from patients participating in a Phase I trial of CA4P (see Rustin et al., J. Clin. Oncol. (2003)). All patients had histologically confirmed tumors and were either not amenable to standard curative therapy or were refractory to conventional therapy. Blood work was obtained from each patient 1 minute prior to treatment, every 15 minutes for the first hour post-treatment, and at 1.5, 2, 4, 8, 12 and 24 hours following infusion with the first dose of CA4P (52-114 mg/m^2). Art-recognized hematology methods were used in the analysis.
All full or differential blood cell counts were performed using a hematology flow cytometer (Technicon H2, Bayer Inc.). Total white blood cell (“WBC” or leukocyte) and red blood cell (“RBC” or erythrocyte) counts were established using direct laser flow cytometry. A differential count for leukocyte cells of myeloid origin (e.g. eosinophils, neutrophils, monocytes) was obtained by fluorescent flow cytometry of cells stained for myeloperoxidase. Unstained cells were assumed to be lymphocytes and basophils. Lymphocyte counts were obtained by subtracting those cells that stained […] for a second, basophil-specific cell stain. Mean Corpuscular Volume (MCV) and Mean Corpuscular Haemoglobin (MCH) were also obtained by laser flow cytometry. The haematocrit (Hct) was calculated from the RBC count and the MCV. The coagulant status of each blood sample was determined by measuring fibrinogen content, prothrombin time, and kaolin partial thromboplastin time (when kaolin is used instead of micronised silica as the activator).
Cell counts were averaged from nineteen patients treated with a range of CA4P doses (52 to 114 mg/m^2). The results of the complete hematological analysis obtained at 4 and 24 hours post-treatment are presented in FIG. 18 as a percentage of the corresponding pretreatment value. […] The increase in white blood cells occurred despite a significant decrease in lymphocyte count (i.e. T and B-lymphocytes). […] The more than 2-fold increase in neutrophils and more than 20% decrease in lymphocytes was transient however, as white blood cell counts returned to normal levels within 24 hours of treatment.

In data set [8] the test system is N87 human gastric carcinoma. As to the kind of experiment: Single agent antitumor activity, N87 xenograft model. Particulars: in vivo.
The test system of data set [9] is N87 gastric cancer tumor xenografts. As to the kind of experiment: Tumor perfusion studies of CA1P, N87 xenografts.
In data set [10] the test system is A2780 human ovarian tumor xenografts. As to the kind of experiment: Tumor perfusion studies of CA1P, A2780 xenografts.
Where [11] appears, read: 4 hours following treatment, CA4P 52 to 114 mg/m^2, nineteen patients.

For the molecule `CCc1c2c(nc3ccc(OC(=O)N4CCC(N5CCCCC5)CC4)cc13)-c1cc3c(c(=O)n1C2)COC(=O)[C@]3(O)CC` [CPT-11, CPT-11 (irinotecan), reference compound], in data set [1] (CPT-11 at its MTD), the “log cell kill (LCK)” value is recorded as 3.3 LCK.
With `N.N.O=C([O-])C1(C(=O)[O-])CCC1.[Pt+2]` [carboplatin, Carboplatin, reference compound], in [2], the “complete response (disappearance of tumors)” value was “not observed”. Besides, the “log cell kill (LCK)” value in data set [2] (carboplatin alone at MTD 90 mg/kg/inj, iv, Q4Dx3, large sc tumors (300 mg)) is 1.4 LCK. The “tumor regression / shrinkage” value in data set [2] (carboplatin alone at MTD vs best CA4P + carboplatin combination (FIG. 3A)) is on record as “no tumor regression”. Further, the “maximum tolerated dose (MTD)” value in [2] (carboplatin, iv, Q4Dx3) was 90 mg/kg/inj.
As for `COc1ccc(/C=C\c2cc(OC)c(OC)c(OC)c2)cc1OP(=O)(O)O` [CA4P, combretastatin A-4 phosphate], the “log cell kill (LCK)” value in data set [3] (CA4P single agent, optimal dose 150 mg/kg/inj, iv, everyday x10 (Monday thru Friday), advanced (300 mg) tumors) was 1.1 LCK; in data set [1] (CA4P at 150 mg/kg, ip), 1.1 LCK. Further, the “CA4P dose sufficient to enhance the antitumor activity of carboplatin” value in [3] (iv, q4dx3, doses without single agent activity, carboplatin at a range of dose levels (FIG. 7)) is 12.5-25 mg/m^2. For the same molecule, the “single agent antitumor activity” value in data set [2] (CA4P administered Q4Dx3, separate experiment) is reported as “no activity”. Besides, in data set [2] (CA4P single agent), the “maximum tolerated dose (MTD) as a single agent” value is greater than 250 mg/kg/inj. The “optimal CA4P dose required for therapeutic synergy” value in data set [2] (in combination with carboplatin (FIG. 3B)) is on record as less than 90 mg/kg/inj. Also, the “minimum effective dose required for synergistic enhancement” value in [2] lay within 25 to 50 mg/kg. The “reduction of tumor blood flow” value in data set [4] turned out to be 67%; in data set [5], 87%. The “animals still alive at the conclusion of the experiment” value in data set [6] (first experiment (FIG. 14)) worked out at 30%. Moreover, the “control of tumor growth” value in [6] (first experiment: CA4P 100 mg/kg, paclitaxel 9 mg/kg, carboplatin 30 mg/kg, once a week for 4 weeks (FIG. 13)) was “not significantly more effective than paclitaxel and carboplatin”. In data set [7] (setting [11]), the decrease in lymphocytes entry is reported as “more than 20%”. In addition, the increase in neutrophils result in data set [7] (setting [11]) was “more than 2 fold”. For the same molecule, in [7] (4 hours following treatment, CA4P 52 to 114 mg/m^2, nineteen patients, vs pretreatment), the “total white blood cell count” value is given as “highly significant increase”. In [7] (after treatment with CA4P), the “time for white blood cell counts to return to normal levels” value is no more than 24 h.
As for `N.N.[Cl][Pt][Cl]` [cisplatin], the “shrinkage of tumors following treatment” value in data set [3] (combination vs single agent cisplatin (FIG. 1)) is on record as “did not”. Moreover, the “maximum tolerated dose (MTD)” value in data set [3] (injected every 4 days for 3 doses (Q4Dx3)) is 7.5 mg/kg. Further, in data set [3] (single agent cisplatin at MTD 7.5 mg/kg, iv, Q4Dx3), the “log cell kill (LCK)” value is listed as 0.8 LCK.
On to `COc1cc(/C=C\c2ccc(OC)c(OP(=O)(O)O)c2OP(=O)(O)O)cc(OC)c1OC` [CA1P, combretastatin A-1 diphosphate], for which, in [2], the “complete response (disappearance of tumors)” value is on record as “not observed” and the “minimum effective dose required for synergistic enhancement” value lay within 4 to 8 mg/kg. In data set [1] (CA1P at MTD 9 mg/kg, ip, q1dx8), the “log cell kill (LCK)” value is reported as 2.1 LCK. For the same molecule, the “maximum tolerated dose (MTD)” value in data set [1] (CA1P, ip, q1dx8) turned out to be 9 mg/kg. Besides, in [6] (second experiment: CA1P and/or carboplatin and paclitaxel, same regime (FIG. 15)), the “control of tumor growth” value is listed as “considerable anti-tumor growth delay”. For the same molecule, the single agent activity result in [8] was “improved single agent activity”. Further, the “inhibition of tumor blood flow” value in data set [9] is listed as “significantly inhibited tumor blood flow”. Also, the “inhibition of tumor blood flow” value in [10] (A2780 xenografts in mice) is recorded as “significantly inhibited tumor blood flow”. For the same molecule, in data set [10] (daily single agent for ten days, human tumor xenografts in nude mice (N87, A2780; FIG. 9)), the “potency of blood flow inhibition relative to CA4P” value was 5-10 times.

The values are drawn from patent publication US20050209310A1, “Methods for modulating tumor growth and metastasis” (priority 2000, published 2005).
